In patent US7569570B2, “Thienopyrimidines, process for preparing the same and use thereof” (Takeda Pharmaceutical Company Limited, priority 2002, dated 2009):

| SMILES | melting point |
| --- | --- |
| CCNC(=O)Nc1ccc(-c2sc3c(c2CNCCOC)c(=O)n(-c2ccccc2)c(=O)n3Cc2c(F)cccc2F)cc1 [Example 2, N-[4-(1-(2,6-difluorobenzyl)-5-{[(2-methoxyethyl)amino]methyl}-2,4-dioxo-3-phenyl-1,2,3,4-tetrahydrothieno[2,3-d]pyrimidin-6-yl)phenyl]-N′-ethylurea] | 221 to 223 °C |
| CCNC(=O)Nc1ccc(-c2sc3c(c2CNCCOCC)c(=O)n(-c2ccccc2)c(=O)n3Cc2c(F)cccc2F)cc1 [Example 3] | 211 to 213 °C |
| CCNC(=O)Nc1ccc(-c2sc3c(c2CN(C)CCC(=O)OCC)c(=O)n(-c2ccccc2)c(=O)n3Cc2c(F)cccc2F)cc1 [Example 4, ethyl 3-[{[1-(2,6-difluorobenzyl)-6-(4-{[(ethylamino)carbonyl]amino}phenyl)-2,4-dioxo-3-phenyl-1,2,3,4-tetrahydrothieno[2,3-d]pyrimidin-5-yl]methyl}(methyl)amino]propanate] | 198 to 200 °C |
| CCNC(=O)Nc1ccc(-c2sc3c(c2CN(C)CC(=O)OCC)c(=O)n(-c2ccccc2)c(=O)n3Cc2c(F)cccc2F)cc1 [Example 5, ethyl[{[1-(2,6-difluorobenzyl)-6-(4-{[(ethylamino)carbonyl]amino}phenyl)-2,4-dioxo-3-phenyl-1,2,3,4-tetrahydrothieno[2,3-d]pyrimidin-5-yl]methyl}(methyl)amino]acetate] | 208 to 209 °C |
| CCNC(=O)Nc1ccc(-c2sc3c(c2CN(C)CCCC(=O)OCC)c(=O)n(-c2ccccc2)c(=O)n3Cc2c(F)cccc2F)cc1 [Example 6, ethyl 4-[{[1-(2,6-difluorobenzyl)-6-(4-{[(ethylamino)carbonyl]amino}phenyl)-2,4-dioxo-3-phenyl-1,2,3,4-tetrahydrothieno[2,3-d]pyrimidin-5-yl]methyl}(methyl)amino]butanate] | 203 to 204 °C |
| CCNC(=O)Nc1ccc(-c2sc3c(c2CN(C)CCC(=O)N(C)C)c(=O)n(-c2ccccc2)c(=O)n3Cc2c(F)cccc2F)cc1 [Example 10, 3-[{[1-(2,6-difluorobenzyl)-6-(4-{[(ethylamino)carbonyl]amino}phenyl)-2,4-dioxo-3-phenyl-1,2,3,4-tetrahydrothieno[2,3-d]pyrimidin-5-yl]methyl}(methyl)amino]-N,N-dimethylpropanamide] | 236 to 237 °C |
| CCNC(=O)Nc1ccc(-c2sc3c(c2CN(C)CCCC(=O)N(C)C)c(=O)n(-c2ccccc2)c(=O)n3Cc2c(F)cccc2F)cc1 [Example 18, 4-[{[1-(2,6-difluorobenzyl)-6-(4-{[(ethylamino)carbonyl]amino}phenyl)-2,4-dioxo-3-phenyl-1,2,3,4-tetrahydrothieno[2,3-d]pyrimidin-5-yl]methyl}(methyl)amino]-N,N-dimethylbutane amide] | 191 to 193 °C |
| CCNC(=O)Nc1ccc(-c2sc3c(c2CN(C)CCNC(C)=O)c(=O)n(-c2ccccc2)c(=O)n3Cc2c(F)cccc2F)cc1 [Example 19, N-{2-[{[1-(2,6-difluorobenzyl)-6-(4-{[(ethylamino)carbonyl]amino}phenyl)-2,4-dioxo-3-phenyl-1,2,3,4-tetrahydrothieno[2,3-d]pyrimidin-5-yl]methyl}(methyl)amino]ethyl}acetamide] | 185 to 186 °C |
| CCNC(=O)Nc1ccc(-c2sc3c(c2CN(C)CCN2CCCC2=O)c(=O)n(-c2ccccc2)c(=O)n3Cc2c(F)cccc2F)cc1 [Example 20, N-{4-[1-(2,6-difluorobenzyl)-5-({methyl[2-(2-oxo-1-pyrrolidinyl)ethyl]amino}methyl)-2,4-dioxo-3-phenyl-1,2,3,4-tetrahydrothieno[2,3-d]pyrimidin-6-yl]phenyl}-N′-ethylurea] | 140 to 142 °C |
| CCNC(=O)Nc1ccc(-c2sc3c(c2CN(C)CCNS(C)(=O)=O)c(=O)n(-c2ccccc2)c(=O)n3Cc2c(F)cccc2F)cc1 [Example 22, N-{2-[{[1-(2,6-difluorobenzyl)-6-(4-{[(ethylamino)carbonyl]amino}phenyl)-2,4-dioxo-3-phenyl-1,2,3,4-tetrahydrothieno[2,3-d]pyrimidin-5-yl]methyl}(methyl)amino]ethyl}methanesulfonamide] | 186 to 188 °C |
| CCNC(=O)Nc1ccc(-c2sc3c(c2CN(C)CCN(C)S(C)(=O)=O)c(=O)n(-c2ccccc2)c(=O)n3Cc2c(F)cccc2F)cc1 [Example 23, N-{2-[{[1-(2,6-difluorobenzyl)-6-(4-{[(ethylamino)carbonyl]amino)phenyl)-2,4-dioxo-3-phenyl-1,2,3,4-tetrahydrothieno[2,3-d]pyrimidin-5-yl]methyl}(methyl)amino]ethyl}-N-methylmethanesulfonamide] | 216 to 218 °C |
| CCNC(=O)Nc1ccc(-c2sc3c(c2CN(C)CCN2CCOC2=O)c(=O)n(-c2ccccc2)c(=O)n3Cc2c(F)cccc2F)cc1 [Example 24] | 153 to 155 °C |
| CCNC(=O)Nc1ccc(-c2sc3c(c2CN(C)CCN(C)Cc2ccccc2)c(=O)n(-c2ccccc2)c(=O)n3Cc2c(F)cccc2F)cc1 [Example 25, N-{4-[5-{[{2-[benzyl(methyl)amino]ethyl}(methyl)amino]methyl}-1-(2,6-difluorobenzyl)-2,4-dioxo-3-phenyl-1,2,3,4-tetrahydrothieno[2,3-d]pyrimidin-6-yl]phenyl}-N′-ethylurea] | 151 to 153 °C |
| CCNC(=O)Nc1ccc(-c2sc3c(c2CN(C)CCNC)c(=O)n(-c2ccccc2)c(=O)n3Cc2c(F)cccc2F)cc1 [Example 26, N-{4-[1-(2,6-difluorobenzyl)-5-({methyl[2-(methylamino)ethyl]amino}methyl)-2,4-dioxo-3-phenyl-1,2,3,4-tetrahydrothieno[2,3-d]pyrimidin-6-yl)phenyl}-N′-ethylurea] | 192 to 193 °C |
| CCNC(=O)Nc1ccc(-c2sc3c(c2CN(C)CCN(C)C(C)=O)c(=O)n(-c2ccccc2)c(=O)n3Cc2c(F)cccc2F)cc1 [Example 27, N-{2-[{[1-(2,6-difluorobenzyl)-6-(4-{[(ethylamino)carbonyl]amino}phenyl)-2,4-dioxo-3-phenyl-1,2,3,4-tetrahydrothieno[2,3-d]pyrimidin-5-yl]methyl}(methyl)amino]ethyl}-N-methylacetamide] | 180 to 181 °C |
| CCNC(=O)Nc1ccc(-c2sc3c(c2CNC)c(=O)n(-c2ccc(OCCOC)cc2)c(=O)n3Cc2c(F)cccc2F)cc1 [Example 28, N-(4-{1-(2,6-difluorobenzyl)-3-[4-(2-methoxyethoxy)phenyl]-5-[(methylamino)methyl]-2,4-dioxo-1,2,3,4-tetrahydrothieno[2,3-d]pyrimidin-6-yl}phenyl)-N′-ethylurea] | 203 to 205 °C |
| CCNC(=O)Nc1ccc(-c2sc3c(c2CN(C)CCC(=O)NC)c(=O)n(-c2ccc(F)cc2)c(=O)n3Cc2c(F)cccc2F)cc1 [Example 30] | 237 to 239 °C |
| CCNC(=O)Nc1ccc(-c2sc3c(c2CN(C)CCC(=O)NC)c(=O)n(-c2ccc(OCCOC)cc2)c(=O)n3Cc2c(F)cccc2F)cc1 [Example 31] | 163 to 165 °C |
| CCNC(=O)Nc1ccc(-c2sc3c(c2CN(C)CCC(=O)N(C)C)c(=O)n(-c2ccc(F)cc2)c(=O)n3Cc2c(F)cccc2F)cc1 [Example 32] | 210 to 212 °C |
| CCNC(=O)Nc1ccc(-c2sc3c(c2CN(C)CCN2CCCC2=O)c(=O)n(-c2ccc(F)cc2)c(=O)n3Cc2c(F)cccc2F)cc1 [Example 33] | 204 to 206 °C |
| CCNC(=O)Nc1ccc(-c2sc3c(c2CN(C)CCN2CCCC2=O)c(=O)n(-c2ccc(OCCOC)cc2)c(=O)n3Cc2c(F)cccc2F)cc1 [Example 34] | 175 to 177 °C |
| CCNC(=O)Nc1ccc(-c2sc3c(c2CN(C)CC2CCN(C)C2=O)c(=O)n(-c2ccc(F)cc2)c(=O)n3Cc2c(F)cccc2F)cc1 (stereo not shown) [Example 36, N-(4-[1-(2,6-difluorobenzyl)-3-(4-fluorophenyl)-5-({methyl[(1-methyl-2-oxo-3-pyrrolidinyl)methyl]amino}methyl)-2,4-dioxo-1,2,3,4-tetrahydrothieno[2,3-d]pyrimidin-6-yl]phenyl}-N′-ethylurea] | 233 to 234 °C |
| CCNC(=O)Nc1ccc(-c2sc3c(c2CN(C)CCN(C)S(C)(=O)=O)c(=O)n(-c2ccc(F)cc2)c(=O)n3Cc2c(F)cccc2F)cc1 [Example 37, N-{2-[{[1-(2,6-difluorobenzyl)-6-(4-{[(ethylamino)carbonyl]amino}phenyl)-3-(4-fluorophenyl)-2,4-dioxo-1,2,3,4-tetrahydrothieno[2,3-d]pyrimidin-5-yl]methyl}(methyl)amino]ethyl}-N-methylsulfonamide] | 228 to 230 °C |
| CCNC(=O)Nc1ccc(-c2sc3c(c2CN(C)CCN(C)S(C)(=O)=O)c(=O)n(-c2ccc(OCCOC)cc2)c(=O)n3Cc2c(F)cccc2F)cc1 [Example 38, N-{2-[({1-2,6-(difluorobenzyl)-6-(4-{[(ethylamino)carbonyl]amino}phenyl)-3-[4-(2-methoxyethoxy)phenyl]-2,4-dioxo-1,2,3,4-tetrahydrothieno[2,3-d]pyrimidin-5-yl)methyl)(methyl)amino)ethyl)-N-methylsulfonamide] | 197 to 199 °C |
| CCNC(=O)Nc1ccc(-c2sc3c(c2CN(C)C[C@@H]2CCCN2S(C)(=O)=O)c(=O)n(-c2ccccc2)c(=O)n3Cc2c(F)cccc2F)cc1 [Example 84] | 189 to 191 °C |
| CCNC(=O)Nc1ccc(-c2sc3c(c2CN(C)C[C@H]2CCCN2S(C)(=O)=O)c(=O)n(-c2ccccc2)c(=O)n3Cc2c(F)cccc2F)cc1 [Example 85] | 189 to 190 °C |
| CCNC(=O)Nc1ccc(-c2sc3c(c2CN(C)CCN2CCCS2(=O)=O)c(=O)n(-c2ccccc2)c(=O)n3Cc2c(F)cccc2F)cc1 [Example 86, N-[4-(1-(2,6-difluorobenzyl)-5-([[2-(1,1-dioxo-2-isothiazolidinyl)ethyl](methyl)amino]methyl}-2,4-dioxo-3-phenyl-1,2,3,4-tetrahydrothieno[2,3-d]pyrimidin-6-yl)phenyl]-N′-ethylurea] | 210 to 211 °C |
| CCNC(=O)Nc1ccc(-c2sc3c(c2CN(C)C2CCCCC2)c(=O)n(-c2ccccc2)c(=O)n3Cc2c(F)cccc2F)cc1 [Example 91, N-{4-[5-{[cyclohexyl(methyl)amino]methyl}-1-(2,6-difluorobenzyl)-2,4-dioxo-3-phenyl-1,2,3,4-tetrahydrothieno[2,3-d]pyrimidin-6-yl]phenyl}-N′-ethylurea] | 210 to 212 °C |
